From ChEMBL document CHEMBL5365466, “Discovery of Triazolyl Derivatives of Cucurbitacin B Targeting IGF2BP1 against Non-Small Cell Lung Cancer” (J Med Chem, 2023)

Assays:
[1] = Antiproliferative activity against human L02 cells assessed as cell growth inhibition incubated for 72 hrs by MTT assay; assay type: toxicity, cell-based
[2] = system: HepG2; test: Antiproliferative activity against human HepG2 cells assessed as cell growth inhibition incubated for 72 hrs by MTT assay; assay type: functional, cell-based; conditions: HepG2, 72 h
[3] = system: A549; test: Antiproliferative activity against human A549 cells assessed as cell growth inhibition; assay type: functional, cell-based
[4] = system: A549; test: Antiproliferative activity against human A549 cells assessed as cell growth inhibition incubated for 72 hrs by SRB assay; assay type: functional, cell-based; conditions: A549, 72 h
[5] = system: MCF7; test: Antiproliferative activity against human MCF7 cells assessed as cell growth inhibition incubated for 72 hrs by SRB assay; assay type: functional, cell-based; conditions: MCF7, 72 h
[6] = system: HepG2; test: Antiproliferative activity against human HepG2 cells assessed as cell growth inhibition incubated for 72 hrs by SRB assay; assay type: functional, cell-based; conditions: HepG2, 72 h
[7] = system: A549; test: Antitumor activity against human A549 cells xenografted in BALB/c mouse assessed as tumor growth inhibition at 0.5 mg/kg,ip administrated for 21 days; assay type: functional; conditions: A549, 504 h, time 21 day, read-out: TGI
[8] = Antiproliferative activity against human L02 cells assessed as cell growth inhibition at 1 uM incubated for 72 hrs by SRB assay; assay type: toxicity, cell-based
[9] = system: HCT-116; test: Antiproliferative activity against human HCT-116 cells assessed as cell growth inhibition at 0.1 uM incubated for 72 hrs by SRB assay; assay type: functional
[10] = Selectivity index, ratio of IC50 for antiproliferative activity against human L02 cells to IC50 for antiproliferative activity against human CFPAC-1 cells
[11] = Selectivity index, ratio of IC50 for antiproliferative activity against human L02 cells to IC50 for antiproliferative activity against human HCT-116 cells; assay type: toxicity, cell-based; conditions: L02 cells versus HCT-116 cells, read-out: Ratio IC50
[12] = system: A549; test: Induction of cell cycle arrest in human A549 cells assessed as accumulation of cells at G2 phase at 0.5 uM incubated for 24 hrs by PI staining based flow cytometric analysis (reference value: 9.26 %); assay type: functional
[13] = Selectivity index, ratio of IC50 for antiproliferative activity against human L02 cells to IC50 for antiproliferative activity against human A549 cells; assay type: toxicity, cell-based; conditions: L02 cells versus A549 cells, read-out: Ratio IC50
[14] = Selectivity index, ratio of IC50 for antiproliferative activity against human L02 cells to IC50 for antiproliferative activity against human MDA-MB-231 cells; assay type: toxicity, cell-based; conditions: L02 cells versus MDA-MB-231 cells, read-out: Ratio IC50
[15] = Antiproliferative activity against human L02 cells assessed as cell growth inhibition incubated for 72 hrs by SRB assay; assay type: toxicity, cell-based
[16] = system: HCT-116; test: Antiproliferative activity against human HCT-116 cells assessed as cell growth inhibition at 1 uM incubated for 72 hrs by SRB assay; assay type: functional
[17] = Acute toxicity in C57BL/6J mouse assessed as death at 0.75 mg/kg,ip measured after 14 days; assay type: organism-based; conditions: in vivo, 336 h, time 14 day
[18] = Selectivity index, ratio of IC50 for antiproliferative activity against human L02 cells to IC50 for antiproliferative activity against human SK-OV-3 cells
[19] = system: HeLa; test: Antiproliferative activity against human HeLa cells assessed as cell growth inhibition incubated for 72 hrs by SRB assay; assay type: functional, cell-based
[20] = system: MDA-MB-231; test: Antiproliferative activity against human MDA-MB-231 cells assessed as cell growth inhibition incubated for 72 hrs by SRB assay; assay type: functional, cell-based; conditions: MDA-MB-231, 72 h
[21] = system: A549; test: Induction of cell cycle arrest in human A549 cells assessed as accumulation of cells at G1 phase at 0.5 uM incubated for 24 hrs by PI staining based flow cytometric analysis (reference value: 65.6 %); assay type: functional
[22] = Selectivity index, ratio of IC50 for antiproliferative activity against human L02 cells to IC50 for antiproliferative activity against human HepG2 cells; assay type: toxicity, cell-based; conditions: L02 cells versus HepG2 cells, read-out: Ratio IC50
[23] = system: A549; test: Induction of cell cycle arrest in human A549 cells assessed as accumulation of cells at S phase at 0.5 uM incubated for 24 hrs by PI staining based flow cytometric analysis (reference value: 23 %); assay type: functional
[24] = system: PANC-1; test: Antiproliferative activity against human PANC-1 cells assessed as cell growth inhibition incubated for 72 hrs by SRB assay; assay type: functional, cell-based; conditions: PANC-1, 72 h
[25] = Selectivity index, ratio of IC50 for antiproliferative activity against human L02 cells to IC50 for antiproliferative activity against human MCF7 cells; assay type: toxicity, cell-based; conditions: L02 cells versus MCF7 cells, read-out: Ratio IC50
[26] = Selectivity index, ratio of IC50 for antiproliferative activity against human L02 cells to IC50 for antiproliferative activity against human BXPC-3 cells; assay type: toxicity, cell-based; conditions: L02 cells versus BXPC-3 cells, read-out: Ratio IC50
[27] = system: CFPAC-1; test: Antiproliferative activity against human CFPAC-1 cells assessed as cell growth inhibition incubated for 72 hrs by SRB assay; assay type: functional, cell-based; conditions: CFPAC-1, 72 h
[28] = target: Insulin-like growth factor 2 mRNA-binding protein 1 (Homo sapiens, UniProt Q9NZI8); test: Binding affinity to His-tagged recombinant IGF2BP1 (unknown origin) assessed as dissociation constant by surface plasmon resonance assay
Sequence of Insulin-like growth factor 2 mRNA-binding protein 1 (Q9NZI8 whole entry): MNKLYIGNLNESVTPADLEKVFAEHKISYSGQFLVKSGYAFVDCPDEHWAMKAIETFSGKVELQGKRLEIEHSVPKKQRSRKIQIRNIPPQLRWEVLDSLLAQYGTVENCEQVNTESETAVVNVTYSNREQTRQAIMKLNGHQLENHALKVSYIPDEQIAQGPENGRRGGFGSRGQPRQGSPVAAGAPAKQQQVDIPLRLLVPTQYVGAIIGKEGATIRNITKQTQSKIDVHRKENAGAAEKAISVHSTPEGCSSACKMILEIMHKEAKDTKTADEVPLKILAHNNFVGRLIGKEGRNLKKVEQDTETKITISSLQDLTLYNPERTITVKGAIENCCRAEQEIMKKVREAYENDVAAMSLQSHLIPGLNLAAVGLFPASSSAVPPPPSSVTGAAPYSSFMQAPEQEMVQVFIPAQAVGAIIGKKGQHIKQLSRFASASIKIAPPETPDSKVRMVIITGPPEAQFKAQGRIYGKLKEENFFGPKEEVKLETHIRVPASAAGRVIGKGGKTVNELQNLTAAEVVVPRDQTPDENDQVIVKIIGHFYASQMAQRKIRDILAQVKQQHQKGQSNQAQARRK

[29] = Selectivity index, ratio of IC50 for antiproliferative activity against human L02 cells to IC50 for antiproliferative activity against human HeLa cells; assay type: toxicity, cell-based; conditions: L02 cells versus HeLa cells, read-out: Ratio IC50
[30] = system: HCT-116; test: Antiproliferative activity against human HCT-116 cells assessed as cell growth inhibition incubated for 72 hrs by SRB assay; assay type: functional, cell-based; conditions: HCT-116, 72 h
[31] = Selectivity index, ratio of IC50 for antiproliferative activity against human L02 cells to IC50 for antiproliferative activity against human PANC-1 cells
[32] = system: A549; test: Induction of apoptosis in human A549 cells at 0.5 uM incubated for 48 hrs by Annexin V-FITC/PI staining based flow cytometric analysis; assay type: functional
[33] = Antiproliferative activity against human L02 cells assessed as cell growth inhibition at 0.1 uM incubated for 72 hrs by SRB assay; assay type: toxicity, cell-based
[34] = system: SK-OV-3; test: Antiproliferative activity against human SK-OV-3 cells assessed as cell growth inhibition incubated for 72 hrs by SRB assay; assay type: functional, cell-based; conditions: SK-OV-3, 72 h
[35] = system: BXPC-3; test: Antiproliferative activity against human BXPC-3 cells assessed as cell growth inhibition incubated for 72 hrs by SRB assay; assay type: functional, cell-based; conditions: BXPC-3, 72 h

CC(=O)OC(C)(C)/C=C/C(=O)[C@](C)(O)[C@H]1[C@H](OCCCC(=O)OCCCOc2no[n+]([O-])c2S(=O)(=O)c2ccccc2)C[C@@]2(C)[C@@H]3CC=C4[C@@H](C[C@H](O)C(=O)C4(C)C)[C@]3(C)C(=O)C[C@]12C
IC50 at 72 h [1]: 2.97 µM
IC50 [2]: 0.63 µM

CC1(C)C(=O)[C@@H](O)C[C@@H]2C1=CC[C@@H]1[C@@]2(C)C(=O)C[C@]2(C)[C@@H]([C@@](C)(O)C(=O)/C=C/C(C)(C)c3cccc(C#N)c3)[C@H](O)C[C@@]12C
IC50 [3]: 0.0068 µM

CC(=O)OC(C)(C)/C=C/C(=O)[C@](C)(O)[C@H]1[C@H](O)C[C@@]2(C)[C@@H]3CC=C4[C@@H](C[C@H](O)C(=O)C4(C)C)[C@]3(C)C(=O)C[C@]12C
IC50 [4]: 0.088 µM
IC50 [5]: 0.04 µM
IC50 [6]: 0.051 µM
inhibition in vivo at 0.5 mg/kg [7]: 53%
inhibition at 72 h, 1 µM [8]: 70.7%
inhibition at 0.1 µM [9]: 69%
Ratio IC50 [10]: 0.49
selectivity ratio [11]: 0.57
Activity [12]: 37.2%
selectivity ratio [13]: 0.13
selectivity ratio [14]: 0.3
IC50 at 72 h [15]: 0.011 µM
inhibition at 1 µM [16]: 82.7%
Activity [17]: Non-Toxic
Ratio IC50 [18]: 0.23
IC50 [19]: 0.024 µM
IC50 [20]: 0.037 µM
Activity [21]: 51.1%
selectivity ratio [22]: 0.22
Activity [23]: 10.2%
IC50 [24]: 0.067 µM
selectivity ratio [25]: 0.23
selectivity ratio [26]: 0.5
IC50 [27]: 0.023 µM
Kd [28]: 0.0662 µM
selectivity ratio [29]: 0.46
IC50 [30]: 0.019 µM
Ratio IC50 [31]: 0.16
Activity [32]: 29.1%
inhibition at 72 h, 0.1 µM [33]: 70.6%
IC50 [34]: 0.047 µM
IC50 [35]: 0.022 µM

CC(=O)OC(C)(C)/C=C/C(=O)[C@](C)(O)[C@H]1[C@H](O)C[C@@]2(C)[C@@H]3CC=C4[C@@H](C[C@H](N)C(=O)C4(C)C)[C@]3(C)C(=O)C[C@]12C
IC50 [3]: 0.12 µM

CC(=O)OC(C)(C)/C=C/C(=O)[C@](C)(O)[C@H]1[C@H](O)C[C@@]2(C)[C@@H]3CC=C4[C@@H](C[C@H](OC(=O)Cn5ncn(-c6ccc(Cl)cc6)c5=O)C(=O)C4(C)C)[C@]3(C)C(=O)C[C@]12C
inhibition at 72 h, 1 µM [8]: 70.9%
inhibition at 0.1 µM [9]: 69%
selectivity ratio [11]: 0.49
IC50 at 72 h [15]: 0.031 µM
inhibition at 1 µM [16]: 84.4%
IC50 [30]: 0.063 µM
inhibition at 72 h, 0.1 µM [33]: 61.3%

CC(=O)OC(C)(C)/C=C/C(=O)[C@](C)(O)[C@H]1[C@H](O)C[C@@]2(C)[C@@H]3CC=C4[C@@H](C[C@H](OC(=O)Cn5ncn(-c6ccccc6)c5=O)C(=O)C4(C)C)[C@]3(C)C(=O)C[C@]12C
inhibition at 72 h, 1 µM [8]: 71.6%
inhibition at 0.1 µM [9]: 67.9%
selectivity ratio [11]: 1.57
IC50 at 72 h [15]: 0.08 µM
inhibition at 1 µM [16]: 82.2%
IC50 [30]: 0.051 µM
inhibition at 72 h, 0.1 µM [33]: 59.6%
